Assay results from patent US20230049952A1, “METHODS AND COMPOUNDS FOR RESTORING MUTANT P53 FUNCTION” (PMV Pharmaceuticals, Inc., priority 2020, published 2023).

Tested on: p53 signaling pathway in MT373 tumors
Test: MT373 syngeneic sarcoma model: mouse p53 signaling pathway profiling panel
Type: in vivo

## CCn1c(C#CCNc2ccccc2)cc2cc(CNC3CCN(C)CC3)ccc21 [Compound 1, 1-Anilino-3-{1-ethyl-5-[(1-methyl-4-piperidylamino)methyl]-1H-indol-2-yl}-2-propyne]
75 mg/kg BIDx1, 48 h
  Dnmt1 fold increase or percent reduction vs vehicle control: 1.11 fold or %
  E2f1 fold increase or percent reduction vs vehicle control: 1.24 fold or %
  E2f3 fold increase or percent reduction vs vehicle control: 30.44 fold or %
  Egfr fold increase or percent reduction vs vehicle control: 34.80 fold or %
  Egr1 fold increase or percent reduction vs vehicle control: 39.68 fold or %
  Ep300 fold increase or percent reduction vs vehicle control: 1.01 fold or %
  Ercc1 fold increase or percent reduction vs vehicle control: 43.22 fold or %
  Esr1 fold increase or percent reduction vs vehicle control: 1.78 fold or %
  Fadd fold increase or percent reduction vs vehicle control: 1.13 fold or %
  Fas fold increase or percent reduction vs vehicle control: 10.67 fold or %
  Fasl fold increase or percent reduction vs vehicle control: 1.48 fold or %
  Foxo3 fold increase or percent reduction vs vehicle control: 3.18 fold or %
  Gadd45a fold increase or percent reduction vs vehicle control: 49.07 fold or %
  Hif1a fold increase or percent reduction vs vehicle control: 1.22 fold or %
  Il6 fold increase or percent reduction vs vehicle control: 80.18 fold or %
  Jun fold increase or percent reduction vs vehicle control: 29.72 fold or %
  Kras fold increase or percent reduction vs vehicle control: 1.01 fold or %
  Lig4 fold increase or percent reduction vs vehicle control: 1.05 fold or %
  Mdm2 fold increase or percent reduction vs vehicle control: 12.55 fold or %
  Mdm4 fold increase or percent reduction vs vehicle control: 19.35 fold or %
  Mel1 fold increase or percent reduction vs vehicle control: 31.09 fold or %
  Mlh1 fold increase or percent reduction vs vehicle control: 7.78 fold or %
  Msh2 fold increase or percent reduction vs vehicle control: 11.63 fold or %
  Myod1 fold increase or percent reduction vs vehicle control: 4.06 fold or %
  Nf1 fold increase or percent reduction vs vehicle control: 29.60 fold or %
  Nfkb1 fold increase or percent reduction vs vehicle control: 7.16 fold or %
  Pcna fold increase or percent reduction vs vehicle control: 38.45 fold or %
  Pmaip1 fold increase or percent reduction vs vehicle control: 1.15 fold or %
  Ppm1d fold increase or percent reduction vs vehicle control: 4.68 fold or %
  Prc1 fold increase or percent reduction vs vehicle control: 16.43 fold or %
  Prkca fold increase or percent reduction vs vehicle control: 13.73 fold or %
  Pten fold increase or percent reduction vs vehicle control: 1.01 fold or %
  Pttg1 fold increase or percent reduction vs vehicle control: 1.08 fold or %
  Rb1 fold increase or percent reduction vs vehicle control: 2.55 fold or %
  Rela fold increase or percent reduction vs vehicle control: 1.07 fold or %
  Rprm fold increase or percent reduction vs vehicle control: 2.09 fold or %
  Serpinb5 fold increase or percent reduction vs vehicle control: 1.90 fold or %
  Sesn2 fold increase or percent reduction vs vehicle control: 1.57 fold or %
  Sfn fold increase or percent reduction vs vehicle control: 1.00 fold or %
  Sirt1 fold increase or percent reduction vs vehicle control: 1.01 fold or %
  Stat1 fold increase or percent reduction vs vehicle control: 1.73 fold or %
  Tnf fold increase or percent reduction vs vehicle control: 1.36 fold or %
  Traf1 fold increase or percent reduction vs vehicle control: 1.38 fold or %
  Trp53bp2 fold increase or percent reduction vs vehicle control: 1.06 fold or %
  Trp53 fold increase or percent reduction vs vehicle control: 1.16 fold or %
75 mg/kg BIDx1, 72 h
  Apex1 fold increase or percent reduction vs vehicle control: 24.49 fold or %
  Atm fold increase or percent reduction vs vehicle control: 12.27 fold or %
  Atr fold increase or percent reduction vs vehicle control: 1.01 fold or %
  Bag1 fold increase or percent reduction vs vehicle control: 25.72 fold or %
  Bax fold increase or percent reduction vs vehicle control: 20.93 fold or %
  Bbc3 fold increase or percent reduction vs vehicle control: 1.08 fold or %
  Bcl2 fold increase or percent reduction vs vehicle control: 2.76 fold or %
  Bid fold increase or percent reduction vs vehicle control: 1.12 fold or %
  Birc5 fold increase or percent reduction vs vehicle control: 12.81 fold or %
  Brca1 fold increase or percent reduction vs vehicle control: 10.57 fold or %
  Brca2 fold increase or percent reduction vs vehicle control: 12.51 fold or %
  Btg2 fold increase or percent reduction vs vehicle control: 16.69 fold or %
  Casp2 fold increase or percent reduction vs vehicle control: 5.88 fold or %
  Ccnb1 fold increase or percent reduction vs vehicle control: 10.10 fold or %
  Ccne1 fold increase or percent reduction vs vehicle control: 1.09 fold or %
  Ccng1 fold increase or percent reduction vs vehicle control: 9.69 fold or %
  Ccnh fold increase or percent reduction vs vehicle control: 11.39 fold or %
  Cdc25a fold increase or percent reduction vs vehicle control: 7.34 fold or %
  Cdk1 fold increase or percent reduction vs vehicle control: 23.09 fold or %
  Cdk4 fold increase or percent reduction vs vehicle control: 22.60 fold or %
  Cdkn1a fold increase or percent reduction vs vehicle control: 1.42 fold or %
  Cdkn2a fold increase or percent reduction vs vehicle control: 39.53 fold or %
  Chek1 fold increase or percent reduction vs vehicle control: 20.93 fold or %
  Cradd fold increase or percent reduction vs vehicle control: 31.95 fold or %
  Cul9 fold increase or percent reduction vs vehicle control: 1.28 fold or %
  Dapk1 fold increase or percent reduction vs vehicle control: 1.11 fold or %
  Dnmt1 fold increase or percent reduction vs vehicle control: 1.02 fold or %
  E2f1 fold increase or percent reduction vs vehicle control: 1.14 fold or %
  E2f3 fold increase or percent reduction vs vehicle control: 15.87 fold or %
  Egfr fold increase or percent reduction vs vehicle control: 24.18 fold or %
  Egr1 fold increase or percent reduction vs vehicle control: 40.49 fold or %
  Ep300 fold increase or percent reduction vs vehicle control: 9.15 fold or %
  Ercc1 fold increase or percent reduction vs vehicle control: 29.53 fold or %
  Esr1 fold increase or percent reduction vs vehicle control: 1.39 fold or %
  Fadd fold increase or percent reduction vs vehicle control: 1.43 fold or %
  Fas fold increase or percent reduction vs vehicle control: 12.05 fold or %
  Fasl fold increase or percent reduction vs vehicle control: 1.42 fold or %
  Foxo3 fold increase or percent reduction vs vehicle control: 14.18 fold or %
  Gadd45a fold increase or percent reduction vs vehicle control: 25.11 fold or %
  Hif1a fold increase or percent reduction vs vehicle control: 1.19 fold or %
  Il6 fold increase or percent reduction vs vehicle control: 65.67 fold or %
  Jun fold increase or percent reduction vs vehicle control: 25.77 fold or %
  Kras fold increase or percent reduction vs vehicle control: 1.09 fold or %
  Lig4 fold increase or percent reduction vs vehicle control: 1.12 fold or %
  Mdm2 fold increase or percent reduction vs vehicle control: 2.80 fold or %
  Mdm4 fold increase or percent reduction vs vehicle control: 14.78 fold or %
  Mel1 fold increase or percent reduction vs vehicle control: 21.11 fold or %
  Mlh1 fold increase or percent reduction vs vehicle control: 4.80 fold or %
  Msh2 fold increase or percent reduction vs vehicle control: 16.07 fold or %
  Myod1 fold increase or percent reduction vs vehicle control: 2.73 fold or %
  Nf1 fold increase or percent reduction vs vehicle control: 21.43 fold or %
  Nfkb1 fold increase or percent reduction vs vehicle control: 1.73 fold or %
  Pcna fold increase or percent reduction vs vehicle control: 23.22 fold or %
  Pmaip1 fold increase or percent reduction vs vehicle control: 1.03 fold or %
  Ppm1d fold increase or percent reduction vs vehicle control: 5.34 fold or %
  Prc1 fold increase or percent reduction vs vehicle control: 6.02 fold or %
  Prkca fold increase or percent reduction vs vehicle control: 6.98 fold or %
  Pten fold increase or percent reduction vs vehicle control: 3.49 fold or %
  Pttg1 fold increase or percent reduction vs vehicle control: 1.03 fold or %
  Rb1 fold increase or percent reduction vs vehicle control: 3.16 fold or %
  Rela fold increase or percent reduction vs vehicle control: 4.69 fold or %
  Rprm fold increase or percent reduction vs vehicle control: 1.34 fold or %
  Serpinb5 fold increase or percent reduction vs vehicle control: 15.52 fold or %
  Sesn2 fold increase or percent reduction vs vehicle control: 1.11 fold or %
  Sfn fold increase or percent reduction vs vehicle control: 8.30 fold or %
  Sirt1 fold increase or percent reduction vs vehicle control: 5.18 fold or %
  Stat1 fold increase or percent reduction vs vehicle control: 1.58 fold or %
  Tnf fold increase or percent reduction vs vehicle control: 1.28 fold or %
  Traf1 fold increase or percent reduction vs vehicle control: 1.16 fold or %
  Trp53bp2 fold increase or percent reduction vs vehicle control: 7.94 fold or %
  Trp53 fold increase or percent reduction vs vehicle control: 1.11 fold or %
75 mg/kg BID×1, 24 h
  Bbc3 mRNA increase: 1.80 fold
  Birc5 mRNA decrease: 45.92%
  Ccng1 mRNA increase: 4.63 fold
  Cdc25c mRNA decrease: 60.54%
  Cdk1 mRNA decrease: 59.92%
  Cdkn1a mRNA increase: 5.16 fold
  Chek1 mRNA decrease: 52.36%
  Egfr mRNA change: 28.18%
  Il6 mRNA change: 70.78%
  Mdm2 mRNA increase: 2.76 fold
  Sesn2 mRNA increase: 2.05 fold
  Zmat3 mRNA increase: 4.14 fold
150 mg/kg BIDx1, 8 h
  Apex1 fold increase or percent reduction vs vehicle control: 27.35 fold or %
  Atm fold increase or percent reduction vs vehicle control: 22.22 fold or %
  Atr fold increase or percent reduction vs vehicle control: 27.07 fold or %
  Bag1 fold increase or percent reduction vs vehicle control: 23.32 fold or %
  Bax fold increase or percent reduction vs vehicle control: 1.68 fold or %
  Bbc3 fold increase or percent reduction vs vehicle control: 1.97 fold or %
  Bcl2 fold increase or percent reduction vs vehicle control: 28.71 fold or %
  Bid fold increase or percent reduction vs vehicle control: 12.20 fold or %
  Birc5 fold increase or percent reduction vs vehicle control: 26.07 fold or %
  Brca1 fold increase or percent reduction vs vehicle control: 34.27 fold or %
  Brca2 fold increase or percent reduction vs vehicle control: 36.90 fold or %
  Btg2 fold increase or percent reduction vs vehicle control: 13.04 fold or %
  Casp2 fold increase or percent reduction vs vehicle control: 34.08 fold or %
  Ccnb1 fold increase or percent reduction vs vehicle control: 15.72 fold or %
  Ccne1 fold increase or percent reduction vs vehicle control: 40.62 fold or %
  Ccng1 fold increase or percent reduction vs vehicle control: 6.49 fold or %
  Ccnh fold increase or percent reduction vs vehicle control: 29.12 fold or %
  Cdc25a fold increase or percent reduction vs vehicle control: 34.26 fold or %
  Cdk1 fold increase or percent reduction vs vehicle control: 39.81 fold or %
  Cdk4 fold increase or percent reduction vs vehicle control: 47.61 fold or %
  Cdkn1a fold increase or percent reduction vs vehicle control: 8.66 fold or %
  Cdkn2a fold increase or percent reduction vs vehicle control: 42.49 fold or %
  Chek1 fold increase or percent reduction vs vehicle control: 41.91 fold or %
  Cradd fold increase or percent reduction vs vehicle control: 36.95 fold or %
  Cul9 fold increase or percent reduction vs vehicle control: 26.00 fold or %
  Dapk1 fold increase or percent reduction vs vehicle control: 2.02 fold or %
  Dnmt1 fold increase or percent reduction vs vehicle control: 17.37 fold or %
  E2f1 fold increase or percent reduction vs vehicle control: 27.89 fold or %
  E2f3 fold increase or percent reduction vs vehicle control: 27.45 fold or %
  Egfr fold increase or percent reduction vs vehicle control: 39.84 fold or %
  Egr1 fold increase or percent reduction vs vehicle control: 53.86 fold or %
  Ep300 fold increase or percent reduction vs vehicle control: 11.02 fold or %
  Ercc1 fold increase or percent reduction vs vehicle control: 16.08 fold or %
  Esr1 fold increase or percent reduction vs vehicle control: 14.42 fold or %
  Fadd fold increase or percent reduction vs vehicle control: 31.64 fold or %
  Fas fold increase or percent reduction vs vehicle control: 2.12 fold or %
  Fasl fold increase or percent reduction vs vehicle control: 3.98 fold or %
  Foxo3 fold increase or percent reduction vs vehicle control: 1.15 fold or %
  Gadd45a fold increase or percent reduction vs vehicle control: 23.94 fold or %
  Hif1a fold increase or percent reduction vs vehicle control: 1.07 fold or %
